According to ChEMBL document CHEMBL1126972, “Synthesis of 2-imidazolidinylidenepropanedinitrile derivatives as stimulators of gastrointestinal motility” (J Med Chem, 1993):
Active and inactive are the calls of the source. The calls are words filed in the database; no cut-off is given here.

Organism: Cavia porcellus
Experiment: In vitro gastrointestinal motility enhancing activity was determined by potentiating action on electrically evoked contraction of the isolated guinea pig ileum; no effect
Assay type: functional
Conditions: not given

Compound	EC30
N#CC(C#N)=C1Nc2ccccc2N1CCNCc1ccc(CN2CCCCC2)o1	inactive
CN(C)Cc1ccc(CNCCN2CCN/C2=C\[N+](=O)[O-])o1	inactive
CNC(NCCNCc1ccc(COC)o1)=C(C#N)C#N	inactive
CC1CCCC(C)N1Cc1ccc(CNCCN2CCNC2=C(C#N)C#N)o1 (stereo not given)	inactive

Organism: Cavia porcellus
Experiment: In vitro gastrointestinal motility enhancing activity was determined by potentiating action on electrically evoked contraction of the isolated guinea pig ileum; the maximum contraction was not achieved to 30%
Assay type: functional
Conditions: not given

Compound	EC30
CN(C)C(=O)Oc1cccc([N+](C)(C)C)c1	inactive

Organism: Cavia porcellus
Experiment: In vitro gastrointestinal motility enhancing activity was determined by potentiating action on electrically evoked contraction of the isolated guinea pig ileum;No effect.
Assay type: functional
Conditions: not given

Compound	EC30
COc1cc(N)c(Cl)cc1C(=O)NCCNCc1ccc(CN(C)C)o1	No effect

These molecules were tested against Acetylcholinesterase (Homo sapiens) (UniProt P22303). Conditions: Cavia porcellus; Ileum.
Chain of Acetylcholinesterase (Homo sapiens) (P22303 whole entry): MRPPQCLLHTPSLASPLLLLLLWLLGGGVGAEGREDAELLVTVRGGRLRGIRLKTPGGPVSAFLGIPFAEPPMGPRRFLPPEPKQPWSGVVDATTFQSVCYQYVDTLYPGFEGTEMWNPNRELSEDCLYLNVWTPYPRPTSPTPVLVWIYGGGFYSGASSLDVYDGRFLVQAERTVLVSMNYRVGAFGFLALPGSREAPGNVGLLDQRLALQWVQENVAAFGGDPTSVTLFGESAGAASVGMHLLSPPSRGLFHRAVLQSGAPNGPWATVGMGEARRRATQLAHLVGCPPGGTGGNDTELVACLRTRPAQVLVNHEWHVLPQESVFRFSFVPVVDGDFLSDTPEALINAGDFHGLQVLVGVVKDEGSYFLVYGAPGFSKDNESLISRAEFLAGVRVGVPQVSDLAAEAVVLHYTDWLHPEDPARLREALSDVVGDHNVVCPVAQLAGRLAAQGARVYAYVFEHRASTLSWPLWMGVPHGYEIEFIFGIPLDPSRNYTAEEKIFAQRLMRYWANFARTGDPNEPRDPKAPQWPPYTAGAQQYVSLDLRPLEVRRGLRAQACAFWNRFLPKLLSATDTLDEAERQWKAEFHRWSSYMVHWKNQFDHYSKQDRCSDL

Compound	EC30
C/N=c1\c(O)c(O)\c1=N/CCNCc1ccc(CN2CCCCC2)o1	7.2 µM
N#CC(C#N)=C1NCCN1CCNCc1ccc(CN2CCCC(O)C2)o1 (stereo not given)	0.46 µM
N#CC(C#N)=C1NCCN1CCNCc1ccc(CN2CCCCC2)o1	0.016 µM
N#CC(C#N)=C1NCCN1CCNCc1ccc(CN2CCC(O)CC2)o1	0.43 µM
CNC(=C[N+](=O)[O-])NCCSCc1ccc(CN(C)C)o1	1.8 µM
CC1CCN(Cc2ccc(CNCCN3CCNC3=C(C#N)C#N)o2)CC1	0.26 µM
CN(C)Cc1ccc(CNCCN2CCNC2=C(C#N)C#N)o1	0.37 µM
N#CC(C#N)=C1NCCN1CCNCc1ccc(CN2CCCCCC2)o1	0.32 µM
CNC(NCCNCc1ccc(CN(C)C)o1)=C(C#N)C#N	2.1 µM
COC1CCCN(Cc2ccc(CNCCN3CCNC3=C(C#N)C#N)o2)C1 (stereo not given)	1.4 µM
CC1CCCN(Cc2ccc(CNCCN3CCNC3=C(C#N)C#N)o2)C1 (stereo not given)	0.41 µM
CCN(CC)Cc1ccc(CNCCN2CCNC2=C(C#N)C#N)o1	1 µM
N#CC(C#N)=C1NCCN1CCNCc1ccc(CN2CCOCC2)o1	13 µM
CNC(NCCNCc1ccc(CN2CCCCC2)o1)=C(C#N)C#N	4.1 µM
CCN(CC)CCNC(=O)c1cc(Cl)c(N)cc1OC	0.43 µM
COC1CCN(Cc2ccc(CNCCN3CCNC3=C(C#N)C#N)o2)CC1	11 µM
N#CC(C#N)=C1NCCN1CCNCc1ccc(CN2CCSCC2)o1	2.9 µM
N#CC(C#N)=C1NCCN1CCNCc1ccc(CN2CCCC2)o1	0.31 µM
CCN(C)Cc1ccc(CNCCN2CCNC2=C(C#N)C#N)o1	0.54 µM
CC1CCCCN1Cc1ccc(CNCCN2CCNC2=C(C#N)C#N)o1 (stereo not given)	0.91 µM
N#CC(C#N)=C1NCCN1CCNCc1ccc(CN2CC=CCC2)o1	0.081 µM
CN1CCN(Cc2ccc(CNCCN3CCNC3=C(C#N)C#N)o2)CC1	1.7 µM
CNC(NCCNCc1ccc(CN2CCCC2)o1)=C(C#N)C#N	2 µM
CNC(NCCNCc1ccc(CN(C(C)C)C(C)C)o1)=C(C#N)C#N	8.5 µM
